Experimental findings from patent US20180105492A1, “COMPOUNDS DERIVED FROM 3-ALKYLAMINE-1H-INDOLYL ACRYLATE AND THEIR USE IN THE TREATMENT OF NEURODEGENERATIVE DISEASES” (FUNDACION PARA LA INVESTIGACION BIOMEDICA DEL HOSPITAL …, priority 2014, published 2018) are described below.

Common to all, as to format: cell-based
Assay [1] deals with Nrf2 transcription factor (Nrf2-ARE). Nature of the assay: Nrf2-ARE induction, luciferase activity in AREc32 (MCF7 cells stably transfected with ARE-LUC). Conditions: Homo sapiens, 24 h, basal = 1, read-out: Relative Luciferase activity (response versus basal). How it is done: For the study of Nrf2 transcription factor, the cellular line AREC32 was used, which is characterized for being stably transfected with the reporter gene of Luciferase linked to the ARE sequence. In the presence electrophilic compounds or oxidative stress, Nrf2 factor binds to ARE sequences, activating luciferase expression and producing a proportional quantity of luciferase. The AREc32 cells were cultured in DMEM media with glutamax, supplemented with 10% fetal bovine serum (FBS), 1% penicillin-streptomycin and 1.6% geneticine (G418) (obtained from GIBCO, Madrid, Spain). Cells were cultured in 75 cm flasks with 11 mL of specific media, incubated at 37° C. and 5% of CO2. Cells were passed every 4-6 days (1:4), whenever the confluence reached 80%. For the experiments, cells were cultured in transparent surface 96 well plates at a density of […] with 100 μL/well. After 24 h in culture, cells were treated with the compounds at different concentrations (1, 10, 30 and 60 μM) during 24 h at 37° C. and 5% CO2. In every experiment it was also included a basal variable, a variable with 10 μM tert-butyl hydroquinone (TBHQ) (positive control) and the variables of the study in a final volume of 100 μL. After an incubation of 24 h with the compounds, luciferase activity was measured by bioluminescence using the commercial kit “Luciferase assay system” (Promega E1500). For that, treatments were removed and cells were washed with 100 μL of PBS 0.1 M. After washing, 20 μL of “lysis buffer” reactive was added to each well. 10 minutes later, luminescence was measured using the multi-well reader FluoStar optima (BMG labtech).
Luminescence was measured in arbitrary units and is directly proportional to luciferase quantity in the wells, which is also directly proportional to Nrf2 transcription factor induction by the specific compound at the established concentration. Measurements were made in duplicate and values were normalized to the basal luminescence value, considered as 1.
The results of Nrf2 induction obtained for the compounds 1 to 16 are shown in Table 1 and are expressed as induction, considering 1 the non-treated cells.

Assay [2] relates to SH-SY5Y cells. Put plainly: Neuroprotection against rotenone/oligomycin A, pre-incubation model, MTT. Conditions: Homo sapiens, compound 1 μM pre-incubation 24 h, then Rot/Olig (30/10 μM); for viability at 1 µM: read-out: % Survival. How it is done:
(§1) SH-SY5Y cells [ECACC 94030304], in 5 to 16 passage after defreezing were maintained in Eagle media modified by Dulbecco (DMEM) containing 15 non-essential amino acids and supplemented with 10% fetal bovine serum, 1 mM glutamine, 50 units/mL penicillin/streptomycin (obtained from GIBCO, Madrid, Spain). Cells were seeded in flasks containing supplemented media and were maintained in an incubator at 37° C. and 5% CO2. 1:4 passes were performed twice per week. For the experiments, cells were seeded in 24 well-plates at a density of 2×10^5 cells/well, or in 96 well-plates at a density of 8×10^4 cells/well. For cytotoxicity experiments, cells were treated with the compounds before confluence with DMEM media supplemented with fetal bovine serum 1%.
(§2) In order to assess cellular viability, we measured the metabolic reduction of 3-(4,5-Dimethylthiazol-2-yl)-2,5 diphenyltetrazolium bromide (MTT). MTT is an indirect assay to measure cellular viability. It is a colorimetric method based on the reduction of 3-(4,5-Dimethylthiazol-2-yl)-2,5 diphenyltetrazolium. This process is performed by the mitochondrial enzyme succinate-dehydrogenase present in metabolic active cells. Thus, the water-soluble yellow MTT (tetrazolium salt) is transformed into a insoluble purple compound (formazan). Quantity of living cells is directly proportional to the quantity of formazan (Mosmann, 1983, J Immunol Methods, 65: 55-63). […] Therefore, with this assay we can measure cellular surviving and proliferation and also, we can determine the cytotoxicity of potential neuroprotective compounds. In order to assess cellular viability in SH-SY5Y cell line, we added 30 μl/well of MTT (5 mg/mL) and after 2 h, medium was carefully removed to avoid losing the formazan and was diluted in 300 μL of DMSO. Afterwards, samples were transferred to a 96 well-plate and the absorbance was measured at 570 nm using a absorbance/fluorescence reader FluoStar optima®. Every MTT assay was performed in triplicates. Absorbance values obtained with the toxic alone were subtracted to the absorbance values obtained in basal conditions (without treatment). That result was considered as the 100% of cell death and the values obtained with the compounds in the presence of the toxic stimulus were normalized as percentages of that value. For determining the surviving percentage, those percentages of cell death were subtracted to 100.
(§3) Neuroprotection elicited by the compounds of the invention 1-16: The activation of Nrf2-ARE pathway by different compounds exerts neuroprotective effects against toxic models based on oxidative stress via the expression of cytoprotective genes. […] We evaluated the neuroprotective potential of the compounds using the human neuroblastoma cell line using the following cytotoxicity models: 1) oxidative stress induced by rotenone+oligomycin, both blockers of the electron transport chain as previously described (Halliwell, 1992, J Neurochem, 59: 1609-23, Newhouse y col., 2004, Toxicol Sci, 79: 137-46), and 2) cytotoxicity induced by the electrophilic compound Menadione. This compound produces oxidative stress after being metabolized by microsomal enzymes in the cell which produces hydroxyl radical and oxygen reactive species. As a consequence, there is a depolarization of mitochondrial membrane generating a release of apoptotic factors such as cytochrome c, and activating the caspase cascade (Loor y col., 2010, Free Radic Biol Med, 49: 1925-36, Chuang y col., 2002, Cancer Res, 62: 6246-54). Caspase 3 activation can produce the lysis of proteins and induce DNA fragmentation, leading to cell death (Gerasimenko y col., 2002, J Cell Sci, 115: 485-97).
For this study we propose a protocol in which the cells are pre-incubated with each of the derivatives at 1 μM for 24 h. After the pre-incubation period, the medium was removed and replaced by culture medium with the rotenone/oligomycin-A (30 μM and 10 μM, respectively) toxic mixture. […]

The test system of assay [3] is SH-SY5Y cells. Nature of the assay: Neuroprotection against rotenone/oligomycin A, pre- and co-incubation model, MTT. Conditions: Homo sapiens, compound 1 μM pre-incubation 24 h and co-incubation 24 h with Rot/Olig (30/10 μM); for inhibition at 1 µM: read-out: % Protection; for viability at 1 µM: read-out: % Survival. The protocol: as §1, §2, §3
In this model, a 24 h pre-incubation period was performed in presence of the compounds synthesized at a concentration of 1 μM. Thereafter, a 24 h co-incubation period was added, in presence of the compounds with rotenone/oligomycin A (30 μM/10 μM) mixture. After 24 h, cell viability was assessed by the MTT reduction method. […]

With `CC(=O)NCCc1c[nH]c2ccc(OC(=O)/C=C/c3ccc(Cl)cc3)cc12` [Compound 11, 3-(2-acetamidoethyl)-1H-indol-5-yl (E)-3-(4-chlorophenyl)acrylate], in assay [1], the fold induction at 10 µM came out at 1.18 ± 0.1, the fold induction at 30 µM was 1.59 ± 0.2 and the fold induction at 60 µM came out at 3.55 ± 0.9. In assay [2], the percent protection against toxin-induced cell death at 1 µM worked out at 33.5% and the viability at 1 µM amounted to 73.2 ± 3.12%. Besides, in assay [3], the inhibition at 1 µM stood at 28.4% and the viability at 1 µM came out at 70.2 ± 3.7%.
Turning to `CC(=O)NCCc1c[nH]c2ccc(OC(=O)/C=C/c3ccc(Cl)c(Cl)c3)cc12` [Compound 12, 3-(2-acetamidoethyl)-1H-indol-5-yl (E)-3-(3,4-dichlorophenyl)acrylate], in assay [1], the fold induction at 10 µM amounted to 1.16 ± 0.1, the fold induction at 30 µM came to 1.43 ± 0.1 and the fold induction at 60 µM was found to be 2.12 ± 0.2. Besides, in assay [2], the percent protection against toxin-induced cell death at 1 µM was determined as 25.3% and the viability at 1 µM was 70.1 ± 4.35%. In addition, in assay [3], the inhibition at 1 µM was 27.8% and the viability at 1 µM is 69.9 ± 3.47%.
Turning to `CC(=O)NCCc1c[nH]c2ccc(OC(=O)/C=C/c3ccccc3C(F)(F)F)cc12` [Compound 13, 3-(2-acetamidoethyl)-1H-indol-5-yl (E)-3-(2-(trifluoromethyl)phenyl)acrylate], in assay [1], the fold induction at 10 µM was determined as 1.38 ± 0.1, the fold induction at 30 µM was determined as 1.79 ± 0.1 and the fold induction at 60 µM was 2.55 ± 0.2. For the same molecule, in assay [2], the percent protection against toxin-induced cell death at 1 µM was 22.1% and the viability at 1 µM came out at 67 ± 3.01%. Further, in assay [3], the inhibition at 1 µM was determined as 50.2% and the viability at 1 µM turned out to be 73.8 ± 4.55%.
Consider `CC(=O)NCCc1c[nH]c2ccc(OC(=O)/C=C/c3cccc(C(F)(F)F)c3)cc12` [Compound 14, 3-(2-acetamidoethyl)-1H-indol-5-yl (E)-3-(3-(trifluoromethyl)phenyl)acrylate], for which, in assay [1], the fold induction at 10 µM was found to be 1.34 ± 0.2, the fold induction at 30 µM came to 1.64 ± 0.2 and the fold induction at 60 µM came to 2.13 ± 0.2. Also, in assay [2], the percent protection against toxin-induced cell death at 1 µM is 34.9% and the viability at 1 µM was found to be 72.5 ± 2.92%. In assay [3], the inhibition at 1 µM was determined as 45.9% and the viability at 1 µM amounted to 72.6 ± 3.75%.
For the molecule `CC(=O)NCCc1c[nH]c2ccc(OC(=O)/C=C/c3ccc(C(F)(F)F)cc3)cc12` [Compound 15, 3-(2-acetamidoethyl)-1H-indol-5-yl (E)-3-(4-(trifluoromethyl)phenyl)acrylate], in assay [1], the fold induction at 10 µM is 2.34 ± 0.2, the fold induction at 30 µM was 4.99 ± 0.5 and the fold induction at 60 µM was found to be 28.9 ± 2.9. Moreover, in assay [2], the percent protection against toxin-induced cell death at 1 µM was 37.5% and the viability at 1 µM was determined as 73.4 ± 3.31%. Further, in assay [3], the inhibition at 1 µM came out at 47.6% and the viability at 1 µM turned out to be 73 ± 2.99%.
For the molecule `CC(=O)NCCc1c[nH]c2ccc(OC(=O)/C=C/c3ccc([N+](=O)[O-])cc3)cc12` [Compound 16, 3-(2-acetamidoethyl)-1H-indol-5-yl (E)-3-(4-nitrophenyl)acrylate], in assay [1], the fold induction at 10 µM was 1.69 ± 0.1, the fold induction at 30 µM came out at 2.41 ± 0.1 and the fold induction at 60 µM stood at 3.19 ± 0.1. In assay [2], the percent protection against toxin-induced cell death at 1 µM stood at 23% and the viability at 1 µM stood at 68.5 ± 2.88%. Also, in assay [3], the inhibition at 1 µM came to 29.5% and the viability at 1 µM came out at 76.5 ± 2.18%.
